# Read-outs that look alike come from different tables or passages of the source.
# How the values were obtained:
# S. aureus ATCC 6538P = experiment: Antibacterial activity: MIC/MBC determination and disc-diffusion; assay type: cell-based, Staphylococcus aureus; conditions: S. aureus ATCC 6538P; for diameter of inhibition zone: disc-diffusion, — = zone not observed; for MIC / MBC: Staphylococcus aureus, ATCC6538P; for MIC: read-out: MIC
# Summary of the method: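 EUCAST/CLSI MIC plus disc-diffusion; MBC, MFC by CLSI. Pre-culture: two passages, 30 °C, 24–48 h (TSA, Sabouraud). Controls fluconazole (fungi) and linezolid (Gram-positives); DMSO vehicle.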
# E. coli ATCC 25922 = experiment: Antibacterial activity: MIC/MBC, MIC with PAβN, disc-diffusion; assay type: cell-based, Escherichia coli; conditions: E. coli ATCC 25922; for -fold reduction of MIC in the presence of PAβN: PAβN 20 μg mL^−1, MHB + 1 mM MgSO4; for MIC: Escherichia coli, ATCC25922, read-out: MIC
# Summary of the method: (§1)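 MICs were measured by CLSI broth microdilution in Mueller–Hinton II broth, with or without the efflux-pump inhibitor PAβN (20 μg mL^−1) and with 1 mM MgSO4 present. A reduction of at least 4-fold with PAβN was counted as significant. Disc diffusion followed EUCAST/CLSI, MBC followed CLSI, and compounds were dissolved in DMSO.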
# K. pneumoniae ATCC 13883 = experiment: as above; assay type: cell-based, Klebsiella pneumoniae; conditions: K. pneumoniae ATCC 13883; for MIC: Klebsiella pneumoniae, ATCC13883, read-out: MIC
# Summary of the method: as §1
# A. baumannii ATCC 19606 = experiment: as above; assay type: cell-based, Acinetobacter baumannii; conditions: Acinetobacter baumannii, ATCC19606; A. baumannii ATCC 19606; read-out: MIC
# Summary of the method: as §1
# [1] = tested on: S. maltophilia ATCC 12714; experiment: as above; assay type: cell-based, Stenotrophomonas maltophilia; conditions: Stenotrophomonas maltophilia, ATCC12714; S. maltophilia ATCC 12714; read-out: MIC
# Summary of the method: as §1
# [2] = tested on: S. maltophilia ATCC 13637; experiment: as above; assay type: cell-based, Stenotrophomonas maltophilia; conditions: S. maltophilia ATCC 13637; for MIC: read-out: MIC
# Summary of the method: as §1
# B. cepacia ATCC 25416 = experiment: Antibacterial activity: MIC/MBC, disc-diffusion; assay type: cell-based, Burkholderia cepacia; conditions: Burkholderia cepacia, ATCC25416; B. cepacia ATCC 25416; read-out: MIC
# Summary of the method: as §1
# [3] = tested on: C. guilliermondii IBA 155; experiment: Antifungal activity: MIC/MFC, disc-diffusion; assay type: cell-based; conditions: for diameter of inhibition zone / MFC: C. guilliermondii IBA 155; for diameter of inhibition zone: (-) = zone not observed, paper discs 9 mm; for MIC / MFC: Meyerozyma guilliermondii, IBA155; for MIC: read-out: MIC
# Summary of the method: (§2)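 Reference agents: fluconazole for yeasts, linezolid for Gram-positive bacteria. Testing used disc diffusion and MIC determination under EUCAST and CLSI recommendations, with MBC/MFC per CLSI. Inocula came from two subcultures at 30 °C for 24–48 h.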
# C. tropicalis ATCC 750 = experiment: Antifungal activity: MIC/MFC, disc-diffusion; assay type: cell-based; conditions: for diameter of inhibition zone: C. tropicalis ATCC 750, (-) = zone not observed, paper discs 9 mm; for MIC: Candida tropicalis, ATCC750, read-out: MIC
# Summary of the method: as §2
# S. cerevisiae ATCC 9763 = experiment: Antifungal activity: MIC/MFC, disc-diffusion; assay type: cell-based, Saccharomyces cerevisiae; conditions: for diameter of inhibition zone / MFC: S. cerevisiae ATCC 9763; for diameter of inhibition zone: (-) = zone not observed, paper discs 9 mm; for MIC / MFC: Saccharomyces cerevisiae, ATCC9763; for MIC: read-out: MIC
# Summary of the method: as §2
# [4] = (-) = zone not observed, paper discs 9 mm
# [5] = Stenotrophomonas maltophilia, ATCC13637
# [6] = read-out: MBC (first MBC where Eagle effect)
# [7] = value after the slash, read-out: second MBC (Eagle effect)
Compound,diameter of inhibition zone (S. aureus ATCC 6538P) [mm],MIC (S. aureus ATCC 6538P) [µg/mL],-fold reduction of MIC in the presence of PAβN (E. coli ATCC 25922),MIC (E. coli ATCC 25922) [µg/mL],MIC (K. pneumoniae ATCC 13883) [µg/mL],MIC (A. baumannii ATCC 19606) [µg/mL],MIC [1] [µg/mL],"MIC [2, 5] [µg/mL]",MIC (B. cepacia ATCC 25416) [µg/mL],diameter of inhibition zone [3] [mm],MIC [3] [µg/mL],diameter of inhibition zone (C. tropicalis ATCC 750) [mm],MIC (C. tropicalis ATCC 750) [µg/mL],diameter of inhibition zone (S. cerevisiae ATCC 9763) [mm],MIC (S. cerevisiae ATCC 9763) [µg/mL],MBC (S. aureus ATCC 6538P; [6]) [µg/mL],MFC (S. cerevisiae ATCC 9763) [µg/mL],other results
"C[Si]1(C)OB(O)c2cc(F)c(SC3CC(=O)N(c4ccc(F)cc4)C3=O)c(F)c21 (stereo not drawn) [Compound 14, 3-((5,7-Difluoro-3-hydroxy-1,1-dimethyl-1,3-dihydrobenzo[c][1,2,5]oxasilaborol-6-yl)thio)-1-(4-fluorophenyl)pyrrolidine-2,5-dione]",22,50,2 -fold,> 200,> 200,> 200,100,25,> 200,31,100,20,200,30,50,–,–,"diameter of inhibition zone [2, 4]: 11 mm; MBC [2, 5]: 100 µg/mL"
"C[Si]1(C)OB(O)c2ccc(SC3CC(=O)N(c4ccc(F)cc4)C3=O)c(F)c21 (stereo not drawn) [Compound 15, 3-((7-Fluoro-3-hydroxy-1,1-dimethyl-1,3-dihydrobenzo[c][1,2,5]oxasilaborol-6-yl)thio)-1-(4-fluorophenyl)pyrrolidine-2,5-dione]",23,25,–,> 200,> 200,> 200,> 200,> 200,> 200,28,200,14,> 200,26,200,–,–,–
"C[Si]1(C)OB(O)c2cc(F)c(SC3CC(=O)N(c4ccc(Br)c(C(F)(F)F)c4)C3=O)c(F)c21 (stereo not drawn) [Compound 16, 1-(4-Bromo-3-(trifluoromethyl)phenyl)-3-((5,7-difluoro-3-hydroxy-1,1-dimethyl-1,3-dihydrobenzo[c][1,2,5]oxasilaborol-6-yl)thio)pyrrolidine-2,5-dione]",20,50,–,> 200,> 200,> 200,> 200,> 200,> 200,30,12.5,19,50,35,6.25,100,50,MFC [3]: 50 µg/mL
"C[Si]1(C)OB(O)c2ccc(SC3CC(=O)N(c4ccc(Br)c(C(F)(F)F)c4)C3=O)c(F)c21 (stereo not drawn) [Compound 17, 1-(4-Bromo-3-(trifluoromethyl)phenyl)-3-((7-fluoro-3-hydroxy-1,1-dimethyl-1,3-dihydrobenzo[c][1,2,5]oxasilaborol-6-yl)thio)pyrrolidine-2,5-dione]",19,25,–,> 200,> 200,> 200,> 200,> 200,> 200,27,50,14,100,33,6.25,100,100,MFC [3]: 200 µg/mL
"C[Si]1(C)OB(O)c2cc(F)c(SCCC(=O)OCCCCCC[n+]3ccccc3)c(F)c21 [Compound 18, 1-(6-((3-((5,7-difluoro-3-hydroxy-1,1-dimethyl-1,3-dihydrobenzo[c][1,2,5]oxasilaborol-6-yl)thio)propanoyl)oxy)hexyl)pyridin-1-ium trifluoromethanesulfonate]",19,25,–,> 400,> 400,> 400,> 400,> 400,> 400,–,> 400,–,400,–,> 400,100,–,–
"C[Si]1(C)OB(O)c2ccc(SCCC(=O)OCCCCCC[n+]3ccccc3)c(F)c21 [Compound 19, 1-(6-((3-((7-Fluoro-3-hydroxy-1,1-dimethyl-1,3-dihydrobenzo[c][1,2,5]oxasilaborol-6-yl)thio)propanoyl)oxy)hexyl)pyridin-1-ium trifluoromethanesulfonate]",20,25,–,> 400,> 400,> 400,> 400,> 400,> 400,–,> 400,15,400,–,> 400,100,–,–
"C[Si]1(C)OB(O)c2cc(F)c(SCCS(=O)(=O)c3ccccc3)c(F)c21 [Compound 20, 5,7-Difluoro-1,1-dimethyl-6-((2-(phenylsulfonyl)ethyl)thio)benzo[c][1,2,5]oxasilaborol-3(1H)-ol]",30,3.12,32 -fold,> 400,> 400,> 400,> 400,> 400,> 400,–,> 400,–,> 400,16,400,12.5,–,"MBC (S. aureus ATCC 6538P; [7]): 200 µg/mL; -fold reduction of MIC in the presence of PAβN (K. pneumoniae ATCC 13883; PAβN 20 μg mL^−1, MHB + 1 mM MgSO4): 4 -fold"
"C[Si]1(C)OB(O)c2ccc(SCCS(=O)(=O)c3ccccc3)c(F)c21 [Compound 21, 7-Fluoro-1,1-dimethyl-6-((2-(phenylsulfonyl)ethyl)thio)benzo[c][1,2,5]oxasilaborol-3(1H)-ol]",26,12.5,16 -fold,> 400,> 400,> 400,> 400,> 400,> 400,–,> 400,–,> 400,30,6.25,200,100,diameter of inhibition zone (E. coli ATCC 25922; [4]): 11 mm
"CC(=O)CSc1ccc2c(c1F)[Si](C)(C)OB2O [Compound 22, 1-((7-Fluoro-3-hydroxy-1,1-dimethyl-1,3-dihydrobenzo[c][1,2,5]oxasilaborol-6-yl)thio)propan-2-one]",25,1.56,–,> 400,> 400,> 400,> 400,> 400,> 400,–,> 400,–,> 400,17,400,200,–,–
"C[Si]1(C)OB(O)c2ccc(SCC(=O)c3ccccc3)c(F)c21 [Compound 23, 2-((7-Fluoro-3-hydroxy-1,1-dimethyl-1,3-dihydrobenzo[c][1,2,5]oxasilaborol-6-yl)thio)-1-phenylethan-1-one]",31,1.56,–,> 400,> 400,> 400,> 400,> 400,> 400,–,> 400,–,400,24,25,3.12,200,MBC (S. aureus ATCC 6538P; [7]): 200 µg/mL

# Source: PMC11110727, “Exploiting thiol-functionalized benzosiloxaboroles for achieving diverse substitution patterns – synthesis, characterization and biological evaluation of promising antibacterial agents” (RSC Medicinal Chemistry, 2024)
